Measurements as given in patent US8476012B2, “Physiogenomic method for predicting metabolic and cardiovascular side effects of thiazolidinediones” (Genomas, Inc., priority 2008, dated 2013).

Experiments:
[1] = suggested by various meta analyses; since disputed; cited from earlier work
[2] = set-up: species or system human; conditions: in vivo
Description: (§1) Outpatients with type 2 diabetes treated between February and June 2007 with rosiglitazone ([…]) or pioglitazone (n=33) for ≧4 months at the Joslin Diabetes Center affiliate of The Hospital of Central Connecticut (THOCC) in New Britain, Conn. were recruited as volunteer subjects. There were no exclusionary criteria. Each subject provided informed written consent as approved by the THOCC Institutional Review Board.
Clinical Assessment. Patient characteristics included age, height, weight, body mass index, and the presence/absence of edema as recorded by a physician.
Physiogenomic Analysis. Patients treated with rosiglitazone or pioglitazone were recruited from THOCC clinics and provided informed written consent as approved by the THOCC Institutional Review Board. For physiogenomic associations to HbA1c, body mass index and edema, genotype data were obtained on 88 patients, 55 on rosiglitazone and 33 on pioglitazone regimens. A standardized set of phenotypes were collected from the most recent medical records for each patient. Valid genotype data were obtained on the 88 patients. […]
(§2) HbA1c was selected as an indicator for efficacy, and body mass index and edema as indicators of undesired side effect. […] The phenotypes were analyzed for covariate dependence on age, gender, ethnicity, and treatment.

[3] = HbA1c level (efficacy indicator) in type 2 diabetes outpatients on thiazolidinedione therapy; format: in vivo, human; conditions: average by covariate; type 2 diabetes outpatients treated ≧4 months; from most recent medical records
Experimental: as §1
Hemoglobin A1c: HbA1c levels were measured via ion exchange using the HPLC Variant II (BioRad Laboratories, Hercules Calif.).
Physiogenomic Analysis. Patients treated with rosiglitazone or pioglitazone were recruited from THOCC clinics and provided informed written consent as approved by the THOCC Institutional Review Board. For physiogenomic associations to HbA1c, body mass index and edema, genotype data were obtained on 88 patients, 55 on rosiglitazone and 33 on pioglitazone regimens. A standardized set of phenotypes were collected from the most recent medical records for each patient. Valid genotype data were obtained on the 88 patients. Extensive information on co-medications and disease history were also collected to control for environmental effects.
as §2

BMI [2] | Compound | risk for myocardial infarction (MI) [1] | HbA1c [3]
33.7 | CN(CCOc1ccc(CC2SC(=O)NC2=O)cc1)c1ccccn1 (stereo not drawn) [rosiglitazone] | may increase the risk for myocardial infarction | 7.4%
33.4 | CCc1ccc(CCOc2ccc(CC3SC(=O)NC3=O)cc2)nc1 (stereo not drawn) [pioglitazone] | does not | 7.4%
